Reference: PMC11589483, “Preparation and anti-colon cancer effect of a novel curcumin analogue (CA8): in vivo and in vitro evaluation” (Frontiers in Pharmacology, 2024)
Read-outs that look alike come from different tables or passages of the source.

Legend:
[1] = Solubility in water by HPLC; type: physicochemical; settings: 25°C, mass of solute dissolved at saturation in 100 g of solvent
Method: The solubility of the synthesized compounds in water was determined using high performance liquid chromatography (HPLC). First, 1.000 g of each compound was accurately weighed, placed in 100 g of water, and stirred at 25°C for a period of time. Then, the reaction system was allowed to stand for 1 h. The supernatant was quantitatively taken, diluted with methanol to volume, and centrifuged, and the solubility was determined using HPLC.

[2] = tested on: cervical cancer cells HeLa; assay: MTT antiproliferative assay, HeLa; type: cell-based; settings: Homo sapiens
Method: (§1) The human cancer cell lines A549, HepG2, MCF-7, Caco-2, and HeLa and the normal human liver cell line LO2 were all obtained from Shanghai Cell Bank of China. All cells were cultured in RPMI 1640 or DMEM supplemented with 10% fetal bovine serum, 100 U/mL penicillin, and 100 μg/mL streptomycin and incubated at 37°C under 5% CO2 (HEPA incubator class100 Thermo company). The medium was replaced three times a week. Cells used in all were in the exponential growth phase.
(§2) The cell inhibition rate was evaluated using the MTT assay. Briefly, cells were seeded in a 96-well plate at a density of 3–4 × 10^3 cells per well and incubated at 37°C for 24 h. The MCACs to be tested were dissolved in dimethyl sulfoxide (DMSO, Merck, Germany) and diluted to five concentrations (3.75, 7.5, 15, 30, 60 μM/L) with RPMI 1640 medium, with each dose analyzed in quadruplicate. The concentration of DMSO was always maintained below 1‰, a concentration that is nontoxic to cells. After incubation for 24 or 48 h, MTT reagent (5 mg/mL) was added to each well and the samples were incubated for 3 h at 37°C in the dark. The absorbance of formazan crystals dissolved in 150 µL of DMSO was measured at 570 nm using a microplate reader to identify the cytotoxic effect of the analogues.

[3] = tested on: liver cancer cells HepG2; assay: MTT antiproliferative assay, HepG2; type: cell-based; settings: Homo sapiens
Method: as §1, §2

[4] = tested on: lung cancer cells A549; assay: MTT antiproliferative assay, A549; type: cell-based; settings: Homo sapiens
Method: as §1, §2

[5] = tested on: colon cancer cells Caco-2; assay: MTT antiproliferative assay, Caco-2; type: cell-based, human; settings: for SI Caco2: logarithm of ratio IC50 LO2 / IC50 cancer cells; for IC50: Homo sapiens, read-out: IC50 Caco2
Method: as §1, §2

[6] = tested on: breast cancer cells MCF-7; assay: MTT antiproliferative assay, MCF-7; type: cell-based; settings: Homo sapiens
Method: as §1, §2

[7] = tested on: normal human liver cell line LO2; assay: MTT assay, normal liver cells LO2; type: cell-based
Method: as §1, §2

[8] = tested on: human cancer cell lines A549, HepG2, MCF-7, Caco-2, and HeLa; assay: MTT assay, panel of human cancer cell lines (statements in words); type: cell-based; settings: five cancer cell lines, after 24 h of treatment, compared to CU
Method: as §1, §2

[9] = tested on: Caco-2 xenograft tumors; assay: In vivo anticancer activity, Caco-2 xenograft; settings: Caco-2 xenograft; CA8 100 mg/kg, CU 100 mg/kg, tegafur 50 mg/kg, gavage every other day
Method: Twenty 5-week-old male BALB nude mice purchased from SPF (Beijing) Biotechnology Co., Ltd. were used for the in vivo pharmacodynamic experiment of CA8. Caco-2 cells (6 × 10^6 cells in 100 μL PBS) were harvested and subcutaneously injected into the right hip of the mice. Then, they were divided into four groups when the tumor volume reached 100 mm^3 and treated with saline, CU (100 mg/kg), tegafur (50 mg/kg), or CA8 (100 mg/kg) via gavage every other day. Tumor size and body weight were measured and recorded every other day. At the end of the experiment, the mice were sacrificed and tumors were harvested and weighed. Tumor volumes were calculated by measuring length (L) and width (W) according to the following formula: V = 0.5 × L × W^2. The tumor tissue was embedded in paraffin, cut into slices, stained with HE, and observed under a light microscope.

Structure (SMILES)	Solubility [1] [mg/100g]	IC50 ([2]; 24 h) [µM]	IC50 ([2]; 48 h) [µM]	IC50 ([3]; HepG2, 24 h) [µM]	IC50 ([3]; HepG2, 48 h) [µM]	IC50 ([4]; A549, 24 h) [µM]	IC50 ([4]; A549, 48 h) [µM]	IC50 ([5]; Caco-2, 24 h) [µM]	IC50 ([5]; Caco-2, 48 h) [µM]	IC50 ([6]; MCF7, 24 h) [µM]	IC50 ([6]; MCF7, 48 h) [µM]	SI Caco2 ([5]; 24 h)	SI Caco2 ([5]; 48 h)	IC50 ([7]; 24 h) [µM]	IC50 ([7]; 48 h) [µM]	cytotoxicity [8]	inhibitory effect on tumor growth [9]
COc1ccc(/C=C2\CN(C)C/C(=C\c3ccc(OC)nc3)C2=O)cn1 [CA4]	2.63	4.6 ± 0.5	2.7 ± 0.5	2.63 ± 0.38	1.95 ± 0.2	22.9 ± 2.7	12.5 ± 0.2	7.7 ± 1.8	9.4 ± 1	17 ± 1.6	7.8 ± 0.7	−0.10	−0.59	6.11 ± 0.33	2.5 ± 0.13		
O=c1[nH]c(=O)n(C2CCCO2)cc1F (stereo not shown) [tegafur, reference compound]																	CA8 > tegafur > CU
Cc1cc(/C=C2\CNC/C(=C\c3cc(C)c(O)c(C)c3)C2=O)cc(C)c1O [CA6]	15.04	> 60	> 60	50.4 ± 15.1	9.28 ± 0.68	> 60	> 60	> 60	> 60	> 60	> 60			> 60	> 60	low toxicity	
COc1ccc(/C=C2\CCC/C(=C\c3ccc(OC)nc3)C2=O)cn1 [CA3]		29.6 ± 2.57	38.3 ± 1.11	30.6 ± 5.99	15.5 ± 0.42	> 60	> 60	> 60	47.4 ± 0.91	> 60	> 60		> 0.1	> 60	> 60	low toxicity	

Second part, led by results:

Solubility [1] [mg/100g]	IC50 ([2]; 24 h) [µM]	IC50 ([2]; 48 h) [µM]	IC50 ([3]; HepG2, 24 h) [µM]	IC50 ([3]; HepG2, 48 h) [µM]	IC50 ([4]; A549, 24 h) [µM]	IC50 ([4]; A549, 48 h) [µM]	IC50 ([5]; Caco-2, 24 h) [µM]	IC50 ([5]; Caco-2, 48 h) [µM]	IC50 ([6]; MCF7, 24 h) [µM]	IC50 ([6]; MCF7, 48 h) [µM]	Structure (SMILES)	SI Caco2 ([5]; 24 h)	SI Caco2 ([5]; 48 h)	IC50 ([7]; 24 h) [µM]	IC50 ([7]; 48 h) [µM]	cytotoxicity [8]	inhibitory effect on tumor growth [9]
3.29	5.26 ± 0.49	1.26 ± 0.18	22.7 ± 1.37	2.71 ± 0.49	36.1 ± 4.76	43.8 ± 5.13	44.4 ± 7.38	7.44 ± 0.49	54.2 ± 17.3	18.2 ± 0.52	Cc1cc(/C=C2\CN(C(C)C)C/C(=C\c3cc(C)c(O)c(C)c3)C2=O)cc(C)c1O [CA7]	−0.05	0.05	39.2 ± 1.67	8.4 ± 0.41		
0.42	18.1 ± 0.8	18.1 ± 0.8	25.2 ± 1	19.8 ± 0.4	25.9 ± 1.3	16.1 ± 0.8	15.8 ± 0.3	10.4 ± 0.7	21.3 ± 3.1	16.8 ± 0.6	COc1ccc(/C=C/C(=O)/C=C/c2ccc(OC)nc2)cn1 [CA2]	0.29	0.23	31 ± 0.41	17.5 ± 1.09		
0.07	> 60	56.5 ± 3.7	> 60	46.9 ± 2.6	> 60	28.6 ± 2.2	> 60	> 60	> 60	47.3 ± 2.1	COc1ccc(/C=C/C(=O)CC(=O)/C=C/c2ccc(OC)nc2)cn1 [CA1]			> 60	57.6 ± 4.83	low toxicity	
1.37	8.4 ± 0.2	4.3 ± 0.1	11.2 ± 0.5	10.7 ± 1.6	21.4 ± 2.7	11.7 ± 0.5	3 ± 0.6	2.09 ± 0.32	22.2 ± 1.8	10.9 ± 1.3	COc1cc(/C=C2\CN(C)C/C(=C\c3ccc(OC4CCCCO4)c(OC)c3)C2=O)ccc1OC1CCCCO1 (stereo not shown) [CA9]	0.70	0.38	15 ± 0.95	5 ± 0.09		
0.22	2.35 ± 0.09	1.81 ± 0.36	> 60	2.18 ± 0.4	28 ± 0.77	34.7 ± 1.89	14.7 ± 0.73	4.87 ± 0.19	30.1 ± 3.36	4.94 ± 1.42	COc1ccc(/C=C2\CN(C(C)C)C/C(=C\c3ccc(OC)nc3)C2=O)cn1 [CA5]	−0.17	0.15	9.8 ± 0.51	6.9 ± 0.46		
